Values joined by “and” are separate entries in the source; they are usually repeats but may differ in a detail not shown here. Equal entries are not always repeated. Where two headings read alike, the source gives them in different places.
How the values were obtained:
[1] = test system: normal CD34+ hematopoietic stem and progenitor cells; details: cited from earlier work
[2] = parameters: method as in ref 16 (a number printed in a supplementary file, which may have a reference list of its own: not looked up in the article's list); details: decitabine 0.1-0.2mg/kg 1-2X/week, four SCD patients; cited from earlier work
DNMT1 = biological target: T1, DNMT1 (Homo sapiens, UniProt P26358); assay: DNMT1 protein measurement by flow cytometry of peripheral blood mononuclear cells; type: in vivo
T1 construct: DNMT1 protein levels were measured by flow cytometric analysis of peripheral blood mononuclear cells; endogenous in cells; host or cells: peripheral blood mononuclear cells of sickle cell disease patients (ex vivo, after in vivo dosing)
Protocol: Phlebotomized whole blood was layered over Histopaque. The interface was collected and washed with phosphate-buffered saline (PBS). Cell suspensions of approximately 200,000 cells were fixed with 4% paraformaldehyde for 30 minutes on ice. Cells were spun down, washed in PBS, and suspended in 70% ethanol and stored at −20°C for subsequent batched analyses. […] All procedures were performed on ice and all centrifugations were done at 400 g for 5 minutes at 4°C. The pellet was hydrated overnight in 1 ml sterile, distilled water to partially reverse the alcohol fixation. After incubation, samples were centrifuged and then resuspended in 1 ml PBS/2% bovine serum albumin (BSA) and incubated for 30 minutes to block nonspecific antibody binding. Following centrifugation, unlabeled anti-DNMT1 antibody [EPR 3522] […] Samples were washed 3 times: each wash was a 10-minute incubation with 1 ml PBS/2% BSA followed by centrifugation. After the third wash, CD64-Alexa Fluor 488 (5 μl/test; BioLegend; catalog no. 305010), Cyclin A2-PE (4μl/test; Beckman Coulter; catalog no. B15092), CD33-APC/Cy7 (5 μl/test; BioLegend; catalog no. 366614), and F(ab′)2-goat anti-rabbit IgG (H+L) Alexa Fluor 647 (0.0938 μg/test; Life Technologies; catalog no. A21246) were added in a final volume of 100 μl and incubated for 1 hour. After the incubation and without washing, 3.5 ml PBS containing 0.5 μg/ml DAPI was added to each sample. All samples were analyzed on an Attune NxT Acoustic Focusing Cytometer (Life Technologies) at a flow rate of 500 μl per minute. Compensation was performed with CompBeads Set Anti-Mouse Ig, κ (BD Biosciences; catalog no. 552843) and Flow Cytometry Protein G Antibody Binding Beads (Bangs Laboratories, Inc.; catalog no. 554/11863).
Data were normalized to the instrument using 8-peak SPHERO Rainbow Calibration Particles (Spherotech; catalog no. RCP-30-5A). WinList 3D v8.0 (Verity Software House) was used for post-acquisition analysis. Doublet discrimination was performed using the DAPI area and peak signals. […]

[3] = parameters: method as in ref 99 (a number printed in a supplementary file, which may have a reference list of its own: not looked up in the article's list); details: cited from earlier work
[4] = parameters: method as in ref 72 (a number printed in a supplementary file, which may have a reference list of its own: not looked up in the article's list); details: cited from earlier work
KG1a = details: cited from earlier work
[5] = cited from earlier work
[6] = Blood counts, clinical pathology (total hemoglobin, reticulocytes, platelets, ANC, ALC, WBC); type: in vivo, human; details: cohorts 4 and 5, while total hemoglobin increased
Excerpt: Blood counts, blood chemistries, total bilirubin, HbF, LDH, and D-dimer levels were standard clinical pathology tests through the CLIA-certified Clinical Pathology Laboratory at the University of Illinois at Chicago.

[7] = test system: multiple intestinal adenomas; parameters: method as in ref 90 (a number printed in a supplementary file, which may have a reference list of its own: not looked up in the article's list); details: cited from earlier work
[8] = test system: Friend erythroleukemia cells; parameters: method as in ref 48 (a number printed in a supplementary file, which may have a reference list of its own: not looked up in the article's list); details: single exposure 0.4 µM; cited from earlier work
[9] = test system: 10T1/2 cells and V79 cells; parameters: method as in ref 74 (a number printed in a supplementary file, which may have a reference list of its own: not looked up in the article's list); details: cited from earlier work
[10] = cited from earlier work; for Cmax: read-out: decitabine Cmax
[11] = two daily treatments 0.5 µM, ref Investigators Brochure

T1 sequence (P26358 whole entry): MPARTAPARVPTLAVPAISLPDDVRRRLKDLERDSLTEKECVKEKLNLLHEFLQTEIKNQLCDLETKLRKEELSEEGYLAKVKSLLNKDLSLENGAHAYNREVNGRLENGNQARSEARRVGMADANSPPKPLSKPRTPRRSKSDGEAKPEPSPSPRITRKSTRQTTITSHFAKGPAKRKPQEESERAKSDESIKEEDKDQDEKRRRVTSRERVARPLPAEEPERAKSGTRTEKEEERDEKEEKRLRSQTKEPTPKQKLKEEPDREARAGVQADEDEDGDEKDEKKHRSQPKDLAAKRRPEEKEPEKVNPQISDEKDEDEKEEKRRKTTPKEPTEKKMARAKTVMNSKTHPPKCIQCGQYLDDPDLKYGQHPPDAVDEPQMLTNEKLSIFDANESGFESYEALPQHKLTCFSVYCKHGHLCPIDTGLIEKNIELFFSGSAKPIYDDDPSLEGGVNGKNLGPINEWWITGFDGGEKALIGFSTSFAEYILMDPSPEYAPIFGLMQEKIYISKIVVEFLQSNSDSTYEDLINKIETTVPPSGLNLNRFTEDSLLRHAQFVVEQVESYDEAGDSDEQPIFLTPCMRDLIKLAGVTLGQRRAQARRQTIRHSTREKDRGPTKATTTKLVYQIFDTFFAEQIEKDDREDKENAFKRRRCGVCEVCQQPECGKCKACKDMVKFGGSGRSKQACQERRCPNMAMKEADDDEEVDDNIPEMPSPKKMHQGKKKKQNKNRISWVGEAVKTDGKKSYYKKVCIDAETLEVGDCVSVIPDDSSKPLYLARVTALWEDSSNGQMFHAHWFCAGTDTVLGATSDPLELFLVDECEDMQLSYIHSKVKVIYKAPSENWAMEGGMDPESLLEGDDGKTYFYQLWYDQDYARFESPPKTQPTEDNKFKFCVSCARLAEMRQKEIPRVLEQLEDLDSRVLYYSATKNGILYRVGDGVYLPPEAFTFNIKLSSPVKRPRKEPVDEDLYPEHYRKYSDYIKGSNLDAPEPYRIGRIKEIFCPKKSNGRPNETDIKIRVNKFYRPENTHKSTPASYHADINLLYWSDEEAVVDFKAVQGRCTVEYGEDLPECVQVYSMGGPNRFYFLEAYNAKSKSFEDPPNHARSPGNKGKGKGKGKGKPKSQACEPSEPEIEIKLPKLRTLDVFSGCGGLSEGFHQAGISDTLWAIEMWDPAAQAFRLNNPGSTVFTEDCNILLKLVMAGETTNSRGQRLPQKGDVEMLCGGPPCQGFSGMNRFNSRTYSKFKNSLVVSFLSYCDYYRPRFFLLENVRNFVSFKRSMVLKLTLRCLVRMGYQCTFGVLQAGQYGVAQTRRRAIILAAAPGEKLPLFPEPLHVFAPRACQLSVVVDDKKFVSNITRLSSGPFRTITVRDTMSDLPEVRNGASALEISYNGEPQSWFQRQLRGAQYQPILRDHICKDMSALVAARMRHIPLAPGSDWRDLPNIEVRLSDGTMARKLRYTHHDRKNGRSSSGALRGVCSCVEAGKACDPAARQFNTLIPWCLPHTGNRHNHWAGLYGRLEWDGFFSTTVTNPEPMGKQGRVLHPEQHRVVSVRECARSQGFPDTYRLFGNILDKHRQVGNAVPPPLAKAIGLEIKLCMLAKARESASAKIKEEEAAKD

SMILES: Nc1ncn([C@H]2C[C@H](O)[C@@H](CO)O2)c(=O)n1 [decitabine, 5-aza-2’-deoxycytidine]
- level that causes measurable DNA damage and apoptosis/cytotoxicity ([1]; peak drug level): > 1.0 µM
- DNMT1 depletion [1, 11]: substantially depleted DNMT1
- phospho-H2AX, DNA scission or apoptosis [1, 11]: did not increase phospho-H2AX, DNA scission or apoptosis
- Hemoglobin increases within 2-4 weeks [2]: > 1.5 g/dL
- maximum hemoglobin increases [2]: 3.5 to 5 g/dL
- DNMT1 protein decrease from baseline in PBMC (DNMT1; decitabine 0.08 mg/kg (cohort 4) after THU 10 mg/kg 2X/week, all patients): approximately 50%
- DNMT1 protein decrease from baseline in PBMC (DNMT1; decitabine […] (cohort 5) after THU 10 mg/kg 2X/week, 2 of the 3 patients): > 75%
- DNMT1 protein decrease from baseline in PBMC (DNMT1; lower decitabine doses (cohorts 1-3)): not in patients with lower decitabine doses
- testicular weight, sperm counts and fertility [3]: dose-dependent decrease in testicular weight, decline in sperm counts and reduced fertility
- Max F-cell% ([4]; SC decitabine, mean ± SD, r3 HU non-responders (n=3), r4 HU responders (n=5), r5 all patients (n=8)): 55.1 ± 11.1% and 81.2 ± 4.4% and 71.4 ± 6.5%
- recovery from neutropenia ([4]; all subjects): within a week
- Pre-tx HbF% ([4]; baseline, mean ± SD, r3 HU non-responders, r4 HU responders, r5 all patients): 2.4 ± 1.6% and 9.0 ± 2.5% and 6.5 ± 1.4%
- local toxicity at SQ injection sites [4]: No local toxicity
- bone marrow aspirate spicule cellularity with treatment ([4]; four subjects): no appreciable decrease
- Total Hb, peak ([4]; mean ± 2SD, pre-treatment 7.6 ± 2): 9.6 ± 1.8
- Adh. to laminin, Pretherapy ([4]; mean ± SE, baseline): 3470 ± 500 RBCs/mm^2
- Adhesion to TSP, Pretherapy ([4]; mean ± SE, baseline): 1570 ± 170 RBCs/mm^2
- CRP, Pretherapy ([4]; mean ± SE, baseline): 1.25 ± 0.27 mg/dL
- D-Dimer, Pretherapy ([4]; mean ± SE, baseline): 490 ± 90 ng/mL
- F1+2, Pretherapy ([4]; mean ± SE, baseline): 1.75 ± 0.22 nmol/L
- TAT, Pretherapy ([4]; mean ± SE, baseline): 7.0 ± 1.7 µg/L
- VWFpp, Pretherapy ([4]; mean ± SE, baseline): 196 ± 26 u/dL
- sVCAM, Pretherapy ([4]; mean ± SE, baseline): 1170 ± 140 ng/mL
- Adh. to laminin, Post Cycle 1 ([4]; mean ± SE): 1950 ± 300 RBCs/mm^2
- Adh. to laminin, Post Cycle 2 ([4]; mean ± SE): 1570 ± 210 RBCs/mm^2
- Adhesion to TSP, Post Cycle 1 ([4]; mean ± SE): 690 ± 150 RBCs/mm^2
- Adhesion to TSP, Post Cycle 2 ([4]; mean ± SE): 910 ± 160 RBCs/mm^2
- CRP, Post Cycle 1 ([4]; mean ± SE): 1.19 ± 0.34 mg/dL
- CRP, Post Cycle 2 ([4]; mean ± SE): 0.82 ± 0.26 mg/dL
- D-Dimer, Post Cycle 1 ([4]; mean ± SE): 320 ± 50 ng/mL
- D-Dimer, Post Cycle 2 ([4]; mean ± SE): 300 ± 50 ng/mL
- F1+2, Post Cycle 1 ([4]; mean ± SE): 1.56 ± 0.16 nmol/L
- F1+2, Post Cycle 2 ([4]; mean ± SE): 1.41 ± 0.15 nmol/L
- TAT, Post Cycle 1 ([4]; mean ± SE): 8.6 ± 2.3 µg/L
- TAT, Post Cycle 2 ([4]; mean ± SE): 5.2 ± 0.9 µg/L
- VWFpp, Post Cycle 1 ([4]; mean ± SE): 156 ± 28 u/dL
- VWFpp, Post Cycle 2 ([4]; mean ± SE): 144 ± 13 u/dL
- sVCAM, Post Cycle 1 ([4]; mean ± SE): 930 ± 100 ng/mL
- sVCAM, Post Cycle 2 ([4]; mean ± SE): 840 ± 100 ng/mL
- nadir ANC, NCI grade 4 neutropenia ([4]; one patient): 400 µL⁻¹
- absolute reticulocyte count (ARC) during treatment ([4]; p=0.0006): decreased
- total bilirubin during treatment ([4]; p=0.01): decreased
- nadir ANC, grade 3 neutropenia ([4]; two patients): 800 µL⁻¹
- DNMT1 protein expression (KG1a; 0.3 µM daily for 2-3 days): profoundly decreased DNMT1 protein expression
- viability (KG1a; 0.3 µM daily for 2-3 days): did not decrease the viability
- phospho-H2AX (KG1a; 0.3 µM, 3 days of treatment): an increase in phospho-H2AX was noted
- clinical adverse events attributed to decitabine ([5]; 13 SCD and 5 β-thalassemia intermedia patients, SC decitabine 12-36 weeks): no clinical adverse events attributed to decitabine
- platelet count increases to ([5]; SCD study of decitabine): > 8e+11 L⁻¹
- HbF increase from baseline ([5]; parenteral decitabine 2–3X/week, plateau after 12 weeks, SCD patients without HbF response to hydroxyurea): > 10%
- platelet count increases to ([5]; sickle cell study, subcutaneous decitabine): ~ 1000 x 10^9/L
- reticulocyte counts [6]: decreased
- tumor development [7]: do not develop tumors
- DNA methylation [8]: decreased DNA methylation
- viability [8]: did not decrease viability
- mutagenicity [9]: either did not show mutagenicity or was weakly mutagenic
- lethal toxicity ([10]; decitabine 1.0 mg/kg + THU 167 mg/kg 2X/week for 9 weeks, ref Investigators Brochure): lethal toxicity in eight females and one male
- toxicity in bone marrow, lymphoid and testicular tissue ([10]; decitabine 0.2 and 0.4 mg/kg + THU, ref Investigators Brochure): reversible toxicity
- Cmax ([10]; low dose 0.2 mg/kg + THU 167 mg/kg oral gavage 2X/week, ref Investigators Brochure): 1.5 µM
- Cmax ([10]; mid dose 0.4 mg/kg + THU 167 mg/kg oral gavage 2X/week, ref Investigators Brochure): 2.9 µM
- Cmax ([10]; mouse, in vivo): 8.6 µM
- NOAEL ([10]; ref Investigators Brochure): no NOAEL
- decrease of decitabine Cmax and AUC cal,0→180 on day 58 compared to day 1 ([10]; ref Investigators Brochure): ~ 30%

— article PMC5589090 (PLoS Medicine, 2017)
